One data set has as its system human ACC1. In words: Human ACC1 enzyme assay (ADP-Glo). Type of data set: biochemical. (ADP-Glo first removes unused ATP, then detects ADP through luciferase.)
Data set [1] can be described thus: Membrane affinity logMA (MA-Transil). Type of data set: physicochemical. As to conditions: buffer pH 7.4.
Data set [2] can be described thus: Plasma protein binding by equilibrium dialysis, human. The data set is classed as in vitro ADME. As to conditions: read-out: fu (human). The procedure:
(§1) The binding of test substances to plasma proteins is determined by equilibrium dialysis by means of the Ht-dialysis apparatus (96-well) made of Teflon and a semipermeable membrane (regenerated cellulose, MWCO 12-14K). This separates 150 μl each of a plasma side and a buffer side (50 mM phosphate buffer). The test substance is added in 2 concentrations (usually 3 and 0.3 μM) to the plasma side and binds to plasma proteins. The unbound fraction of the test substance passes through the membrane and is distributed on either side until equilibrium is established (after approx. 6-8 h at 37° C.). The substance concentration on the buffer side and the plasma side is determined by LC-MS analysis. For this, both sides are brought by dilution with buffer or plasma to the same matrix (10% plasma) and then precipitated with methanol. The free (unbound) fraction (fu) is calculated from the quotient of the buffer and plasma concentration. Stability tests and recovery tests are run concurrently as controls. In addition, the substance in buffer is dialysed against buffer, to check the nonspecific binding to apparatus and membrane and establishment of equilibrium. Because during incubation the osmotic pressure of the plasma proteins leads to dilution of the plasma (volume shift), this possible error is determined by weighing blank plasma samples and is included in the calculation of fu. Establishment of equilibrium and plasma stability should have a value not lower than 80% and the recovery should be at least 30%. A free fraction of <1% is regarded as high, between 1 and 10% as moderate and >10% as low plasma protein binding.
(Equilibrium dialysis compares concentrations on both sides of a semipermeable membrane.)

Data set [3] in a line: Maximum tolerated dose (MTD) in the mouse. Type of data set: in vivo. The following applies: for Deaths: 21 days; for MTD at 21 days: female, NMRI-nude (nu/nu), mouse, in vivo, oral, 21-day treatment. The procedure:
The MTD was defined as the highest dose which could be administered without any animal dying during the treatment phase, and without any body weight loss of more than 10% compared to the initial weight.
Example 1-1 was administered to female nude mice (NMRI nu/nu):
The treatment phase was followed by an observation phase of 21 days.

The nature of data set [4]: PC-3 prostate carcinoma xenograft model in the mouse. As to conditions: male, NMRI-nude (nu/nu), mouse, in vivo, po. The procedure:
(§2) Xenograft models in immunosuppressed mice were used to determine the antitumour activity in living organisms.
(§3) Use was made primarily of a prostate carcinoma model with hormone-independent human PC-3 cells in male nude mice (NMRI-nude (nu/nu) mice, Taconic M&B A/S). To this end, 3 million tumour cells (suspended in medium+Matrigel) 1:1, final 0.1 ml) were injected subcutaneously into the side of each animal. When the tumours extended to an area of 20-30 mm^2., the mice were randomized into therapy groups and therapy was initiated. […] At this point in time, the experiment was terminated in all groups and the prepared tumours were weighed. The T/C value was calculated as primary success parameter using the effect on the final tumour weight: mean tumour weight in the treatment group divided by mean of the tumour weight in the vehicle group.
(§4) Administration route: per os Vehicle: PEG400/ethanol/Solutol HS 15 (70/5/25, v/v/v) Administration volume: 10 ml/kg

Data set [5] has as its system PC-3 prostate carcinoma xenograft. Described as above. The following applies: for T/C: 17 days, 2 administrations per day. The protocol: as §2, §3, §4
Data set [6] is described as follows: Plasma protein binding by equilibrium dialysis, rat. Type of data set: in vitro ADME. As to conditions: read-out: fu (rat). The procedure: as §1
Data set [7] can be described thus: Prediction of human pharmacokinetic parameters and human therapeutic dosage.
Protocol: The human pharmacokinetic (PK) parameters (Table 9) were predicted based on the in vivo PK parameters obtained for rats (single species scaling), taking into account the interspecies differences in the free fraction (fu) in the plasma. The effective AUC (area under curve) was determined based on the measured plasma concentration time profile for in vivo efficacy in the PC3 tumour model of the mouse (nu/nu mouse).

This is an account of results in patent US20140011853A1, “SUBSTITUTED 3-(BIPHENYL-3-YL)-8,8-DIFLUORO-4-HYDROXY-1-AZASPIRO[4.5]DEC-3-EN-2-ONES FOR THERAPY” (BAYER INTELLECTUAL PROPERTY GMBH, priority 2011, published 2014).

In general, melting point refers to the temperature of the solid-liquid transition. Usually MTD stands for the largest dose that counted as tolerated. A low value points to poorer tolerability. As a reminder, the AUC is the area under the concentration-time curve, a measure of exposure. The low end stands for low exposure, the high end for high exposure.

Molecules are shown by their SMILES.

As to `Cc1ccc(-c2ccc(Cl)cc2)cc1C1=C(O)C2(CCC(F)(F)CC2)NC1=O` [Example 1-2, 3-(4′-Chloro-4-methylbiphenyl-3-yl)-8,8-difluoro-4-hydroxy-1-azaspiro[4.5]dec-3-en-2-one], the melting point was 105 °C. The “Selectivity ACC1 vs. ACC2 (mean of the individual measurements ± standard deviation)” value in the data set with human ACC1 stood at 13.4 ± 4.5. Moreover, the logMA in data set [1] is listed as 1.83 (1.7-1.9, n = 3). For the same compound, the fraction unbound in data set [2] came out at 0.0042.

Take `Cc1ccc(-c2ccc(Cl)c(F)c2)cc1C1=C(O)C2(CCC(F)(F)CC2)NC1=O` [Example 1-1, 3-(4′-Chloro-3′-fluoro-4-methylbiphenyl-3-yl)-8,8-difluoro-4-hydroxy-1-azaspiro[4.5]dec-3-en-2-one]: the Deaths in [3] (12.5 mg/kg per os, 1 administration per day) is reported as 0 of 4; in data set [3] (25 mg/kg per os, 1 administration per day) it was 0 of 4; in data set [3] (50 mg/kg per os, 1 administration per day), 0 of 4; in data set [3] (50 mg/kg per os, 2 administrations per day), 0 of 4; in [3] (75 mg/kg per os, 1 administration per day), 0 of 4; in data set [3] (100 mg/kg per os, 1 administration per day) it was 0 of 4. For the same compound, the MTD at 21 days was greater than 50 mg/kg in data set [3] (50 mg/kg, administration twice per day) and greater than 100 mg/kg in [3] (administration once per day). Also, the values for the AUC in data set [4] (40 mg/kg) and in data set [4] (80 mg/kg) were 376 µg·h/mL and 6080 µg·h/mL, respectively. Further, the T/C in data set [5] (40 mg/kg per os) was 0.26; in data set [5] (80 mg/kg day 1-3, 70 mg/kg from day 4 onwards, per os), 0.26. Also, in data set [5] (80 mg/kg, 2 times per day, after 3 days), the “Reduction in body weight in individual animals” value was “more than 10%”. Moreover, the fraction unbound in data set [6] worked out at 0.0027; in [2], 0.0035. Moreover, the “calc. AUC (human)” value was 1882 µg·h/mL in data set [7] (from mouse dosage 40 mg/kg 2 × per day) and 3041 µg·h/mL in data set [7] (from mouse dosage 80 mg/kg 2 × per day). Moreover, in data set [7] (predicted (fu-corrected), single species scaling from rat), the “pred. CL (human)” value was 3 mL/h/kg.
